Laboratory results from patent publication US5017689A, “Dynorphin analogs specific for kappa opioid receptors” (Arizona Technology Development Corporation, priority 1989, dated 1991).
Read-outs that look alike come from different tables or passages of the source. Bridge positions count the residues as written; N and C are the ends. Peptide text beside a SMILES is read from it.

What was measured:
κ opioid receptors = target: T1, κ opioid receptors (Cavia porcellus, UniProt P41144); test: Radioligand binding, inhibition of [3H]U-69593 binding to guinea pig brain membrane
T1 construct: from tissue; host or cells: whole guinea pig brain membranes
Protocol: (§2) Samples were incubated for 1.0 h at 25° C. before filtration through glass fiber filter strips (GF/B, Whatman) pretreated with 0.1% polyethylenimine. Nonspecific binding (=20% of total binding) was defined as binding measured in the presence of 1.0 μM Dyn A1-13.

δ opioid receptors = target: T2, δ opioid receptors (Rattus norvegicus, UniProt P33533); test: Radioligand binding, [3H]DPDPE, brain membranes; conditions: rat brain homogenate, 1.0 nM radioligand
T2 construct: membranes prepared from whole rat brain (less cerebellum); from tissue; host or cells: whole rat brain (less cerebellum) membranes
Protocol: as §2

μ opioid receptors = μ opioid receptors (Rattus norvegicus, UniProt P33535); test: biochemical
Protocol: as §2

kappa opioid receptor = conditions: cited from earlier work
[1] = administered i.c.v.; cited from earlier work
[2] = administered i.c.v.; cited from earlier work; remark: listed apart in the source
[3] = tested on: guinea pig ileum (GPI) longitudinal muscle/myenteric plexus preparation; test: Guinea pig ileum (GPI) longitudinal muscle/myenteric plexus bioassay; assay type: cell-based
Protocol: The known guinea pig ileum (GPI) longitudinal muscle/myenteric plexus preparation was used for in vitro bioassays (Kosterlitz, H.W., Lydon, R.J., and Watt, A.J., (1970), Br. J. Pharmacol., 39, 398-413). The tissues were suspended under a final tension of 1 g in organ baths, bathed with Krebs buffer (NaCl 118 mM, KCl 4.7 mM, CaCl2 2.5 mM, KH2 PO4 1.19 mM, MgSO4 1.18 mM, NaHCO3 25 mM, and glucose 11.48 mM), maintained at 37° C. and aerated with 95% O2 /5% CO2. Electrical stimuli were 0.4 msec pulses of supramaximal voltage, at a rate 6/min. Isometric contractions were measured via strain gauge force transducers on chart recorders. The mouse vas deferens (MVD) preparation was also performed as described by Hughes et al. (Hughes, J., Kosterlitz, H.W., and Leslie, F.M., (1975), Br. J. Pharmacol., 53, 371-381). The Krebs buffer was made as above, but without magnesium and the tissues were suspended under a final tension of 500 mg. Pulse duration was 2 msec. Dose-response testing in all preparations was carried out in a cumulative fashion. The compounds were tested for intrinsic agonist activity in the two in vitro bioassays. […] Ke values were calculated according to the formula: […]
(§1) where [Ant] is the concentration of the antagonist, and DR is the dose ratio (i.e., IC50 after antagonism divided by the IC50 before antagonist activity was measured).

[4] = tested on: mouse vas deferens (MVD) preparation; test: Mouse vas deferens (MVD) bioassay; assay type: cell-based
Protocol: The known guinea pig ileum (GPI) longitudinal muscle/myenteric plexus preparation was used for in vitro bioassays (Kosterlitz, H.W., Lydon, R.J., and Watt, A.J., (1970), Br. J. Pharmacol., 39, 398-413). The tissues were suspended under a final tension of 1 g in organ baths, bathed with Krebs buffer (NaCl 118 mM, KCl 4.7 mM, CaCl2 2.5 mM, KH2 PO4 1.19 mM, MgSO4 1.18 mM, NaHCO3 25 mM, and glucose 11.48 mM), maintained at 37° C. and aerated with 95% O2 /5% CO2. Electrical stimuli were 0.4 msec pulses of supramaximal voltage, at a rate 6/min. Isometric contractions were measured via strain gauge force transducers on chart recorders. The mouse vas deferens (MVD) preparation was also performed as described by Hughes et al. (Hughes, J., Kosterlitz, H.W., and Leslie, F.M., (1975), Br. J. Pharmacol., 53, 371-381). The Krebs buffer was made as above, but without magnesium and the tissues were suspended under a final tension of 500 mg. Pulse duration was 2 msec. Dose-response testing in all preparations was carried out in a cumulative fashion. The compounds were tested for intrinsic agonist activity in the two in vitro bioassays. Thus, concentrations showing intrinsic activity for each analog were tested in the presence of naloxone (1000 nM) to define opioid activity. To further define the opioid selectivity of the agonist effect, the δ selective antagonist ICI 174,864 (Cotton, R., Giles, M.G., Miller, L., Shaw, J.S., and Timms, D. (1984), Eur. J. Pharmacol., 97, 331-332) was utilized in the MVD, and the μ selective antagonists CTAP (Pelton, J.T., Kazmierski, W., Gulya, K., Yamamura, H.I., and Hruby, V.J. (1986), J. Med. Chem., 29, 2370-2375) or CTP (Pelton, J.T., Gulya, K., Hruby, V.J., Duckles, S., and Yamamura, H.I. (1985) Proc. Natl. Acad. Sci. U.S.A., 82, 236-239) were employed in the GPI, all at 1000 nM. Ke values were calculated according to the formula: […]
as §1

[5] = selectivity, ratio of IC50 values

T1 sequence (P41144 whole entry): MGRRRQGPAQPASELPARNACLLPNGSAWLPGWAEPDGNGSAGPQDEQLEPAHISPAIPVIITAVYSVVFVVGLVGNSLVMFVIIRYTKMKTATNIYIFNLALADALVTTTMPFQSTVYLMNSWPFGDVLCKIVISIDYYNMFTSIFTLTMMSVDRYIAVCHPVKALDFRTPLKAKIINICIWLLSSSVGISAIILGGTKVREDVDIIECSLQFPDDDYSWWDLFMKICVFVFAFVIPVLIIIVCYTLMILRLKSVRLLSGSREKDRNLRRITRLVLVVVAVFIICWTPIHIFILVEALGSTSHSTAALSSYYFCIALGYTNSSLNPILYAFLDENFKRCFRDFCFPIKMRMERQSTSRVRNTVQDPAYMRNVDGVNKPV
Sequence of μ opioid receptors (P33535 whole entry): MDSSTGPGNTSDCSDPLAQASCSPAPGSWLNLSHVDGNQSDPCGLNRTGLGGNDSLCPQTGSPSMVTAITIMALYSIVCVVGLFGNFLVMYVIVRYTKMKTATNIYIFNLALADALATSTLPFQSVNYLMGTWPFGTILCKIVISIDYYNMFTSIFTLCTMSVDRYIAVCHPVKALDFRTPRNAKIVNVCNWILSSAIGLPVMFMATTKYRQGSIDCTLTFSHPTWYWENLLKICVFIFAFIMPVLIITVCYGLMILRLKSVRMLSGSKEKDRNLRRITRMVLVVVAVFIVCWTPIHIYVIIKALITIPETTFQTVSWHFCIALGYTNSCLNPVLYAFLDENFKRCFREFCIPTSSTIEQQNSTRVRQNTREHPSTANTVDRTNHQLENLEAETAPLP
T2 sequence (P33533 whole entry): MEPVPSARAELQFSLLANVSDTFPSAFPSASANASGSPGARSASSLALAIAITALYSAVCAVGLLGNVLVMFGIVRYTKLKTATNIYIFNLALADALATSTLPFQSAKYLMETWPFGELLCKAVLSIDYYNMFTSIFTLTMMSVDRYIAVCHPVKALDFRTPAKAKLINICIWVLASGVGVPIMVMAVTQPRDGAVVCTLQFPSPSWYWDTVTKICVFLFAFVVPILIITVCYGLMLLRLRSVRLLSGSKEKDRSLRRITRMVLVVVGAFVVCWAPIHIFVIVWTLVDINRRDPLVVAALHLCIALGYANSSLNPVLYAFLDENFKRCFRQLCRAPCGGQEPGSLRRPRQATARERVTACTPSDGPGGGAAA

| Compound | IC50 (κ opioid receptors) [nM] | IC50 (δ opioid receptors) [nM] | IC50 (μ opioid receptors) [nM] | other results |
| --- | --- | --- | --- | --- |
| C[C@H]1NC(=O)[C@H](CCCNC(=N)N)NC(=O)[C@H](CCCNC(=N)N)NC(=O)[C@@H](NC(=O)[C@H](Cc2ccccc2)NC(=O)CNC(=O)CNC(=O)[C@@H](N)Cc2ccc(O)cc2)CSSC[C@@H](C(N)=O)NC(=O)[C@@H]2CCCN2C(=O)[C@H](CCCNC(=N)N)NC1=O [Compound 2] | 0.28 ± 0.036 | 1.63 ± 0.53 | 0.27 ± 0.14 |  |
| CC(C)C[C@@H]1NC(=O)[C@H](CCCCN)NC(=O)[C@@H]2CCCN2C(=O)[C@H](CCCN=C(N)N)NC(=O)[C@@H](NC(=O)[C@H](CCCN=C(N)N)NC(=O)[C@H](CCCN=C(N)N)NC(=O)[C@H](CC(C)C)NC(=O)[C@H](Cc2ccccc2)NC(=O)CNC(=O)CNC(=O)[C@@H](N)Cc2ccc(O)cc2)CSSC[C@@H](C(N)=O)NC1=O [Compound 3] |  | 3.97 ± 0.96 | 0.98 ± 0.12 |  |
| CC[C@H](C)[C@@H]1NC(=O)[C@H](CCCN=C(N)N)NC(=O)[C@H](CCCN=C(N)N)NC(=O)[C@@H](NC(=O)[C@H](Cc2ccccc2)NC(=O)CNC(=O)CNC(=O)[C@@H](N)Cc2ccc(O)cc2)CSSC[C@@H](C(N)=O)NC(=O)[C@@H]2CCCN2C(=O)[C@H](CCCN=C(N)N)NC1=O [Compound 1] (H-YGGFCRRIRPC-NH2; disulfide 5-11) | 0.39 ± 0.06 | 18.6 ± 7.5 | 2.3 ± 0.72 |  |
| [D-pro^10 ]Dyn A1-11 -OH [DPDYN] |  |  |  | reported binding affinity (kappa opioid receptor; against the kappa ligand [3H]Bremazocine): about 0.032 nM; κ vs. μ and κ vs δ selectivities (kappa opioid receptor): high; activity against thermal stimulus [1]: did not show any activity; effect against chemical pain [2]: dose-related effect |
| CC[C@H](C)[C@H](NC(=O)[C@H](CCCNC(=N)N)NC(=O)[C@H](CCCNC(=N)N)NC(=O)[C@H](CC(C)C)NC(=O)[C@H](Cc1ccccc1)NC(=O)CNC(=O)CNC(=O)[C@@H](N)Cc1ccccc1)C(=O)N[C@@H](CCCNC(=N)N)C(=O)N1CCC[C@@H]1C(=O)N[C@@H](CCCCN)C(N)=O [Compound 6, [Phe^1, D-Pro^10]Dyn A1-11NH2] | 2.4 ± 0.56 | 390 ± 52 | 120 ± 22 |  |
| CC(C)C[C@H](NC(=O)[C@H](Cc1ccccc1)NC(=O)CNC(=O)CNC(=O)[C@@H](N)Cc1ccc(O)cc1)C(=O)N[C@@H](CCCNC(=N)N)C(=O)N[C@@H](CCCNC(=N)N)C(=O)N[C@@H]1CSSC[C@H](C(N)=O)NC(=O)[C@H](CC(C)C)NC(=O)[C@H](CCCCN)NC(=O)[C@@H]2CCCN2C(=O)[C@H](CCCNC(=N)N)NC1=O [Compound 5] |  |  |  | δ/κ (κ opioid receptors; [5]): 130; μ/κ (κ opioid receptors; [5]): 3; IC50 (κ opioid receptors; κ, guinea pig brain homogenate, 1.0 nM radioligand, read-out: IC50 (nM) [3H]-U-69,593): 0.11 ± 0.009 nM; IC50 [3]: 1.75 nM; Ke (nM) for: NLX ([3]; naloxone 1000 nM): 233 nM; IC50 [4]: 19.5 nM; Ke (nM) for: NLX ([4]; naloxone 1000 nM): 18.2 nM; Ke (nM) for: ICI ([4]; δ antagonist ICI 174,864 1000 nM): 1000 nM; Ke (nM) for: CTAP ([4]; μ antagonist CTAP 1000 nM): 1430 nM |
| CC(C)C[C@H](NC(=O)[C@H](Cc1ccccc1)NC(=O)CNC(=O)CNC(=O)[C@@H](N)Cc1ccc(Br)cc1)C(=O)N[C@@H](CCCNC(=N)N)C(=O)N[C@@H](CCCNC(=N)N)C(=O)N[C@H](C)C(=O)N[C@@H](CCCNC(=N)N)C(=O)N1CCC[C@H]1C(=O)N[C@@H](CCCCN)C(N)=O [Compound 7, [p-BrPhe^1, D-Ala^8]Dyn A1-11NH2] | 1.7 ± 0.14 | 1060 ± 40 | 47 ± 5.1 |  |
| CC[C@H](C)[C@H](NC(=O)[C@H](CCCN=C(N)N)NC(=O)[C@H](CCCN=C(N)N)NC(=O)[C@H](CC(C)C)NC(=O)[C@H](Cc1ccccc1)NC(=O)CNC(=O)CNC(=O)[C@@H](N)Cc1ccc(O)cc1)C(=O)N[C@@H](CCCN=C(N)N)C(=O)N1CCC[C@H]1C(=O)N[C@@H](CCCCN)C(=O)N[C@@H](CC(C)C)C(=O)N[C@@H](CCCCN)C(N)=O [Dyn A1-13NH2, reference compound] | 0.109 ± 0.003 | 2.96 | 1.33 |  |
| CC(C)C[C@@H]1NC(=O)[C@H](CCCCN)NC(=O)[C@@H]2CCCN2C(=O)[C@H](CCCNC(=N)N)NC(=O)[C@H](NC(=O)[C@H](CCCNC(=N)N)NC(=O)[C@H](CCCNC(=N)N)NC(=O)[C@H](CC(C)C)NC(=O)[C@H](Cc2ccccc2)NC(=O)CNC(=O)CNC(=O)[C@@H](N)Cc2ccc(O)cc2)CSSC[C@@H](C(N)=O)NC1=O [Compound 4] |  | 104 ± 1.86 | 10.3 ± 3.9 |  |
